Tests used:
hSERT [1] = biological target: T1, hSERT (Homo sapiens, UniProt P31645); assay: Binding of [125I]-RTI-55 in whole cell assay, hSERT; conditions: displacement of [125I]-RTI-55
T1 construct: expressed in transfected cells; the general 96-well protocol names Cos-1
Text: RTI-55 was used to test for the compounds of the present invention to act as displacers of cocain.
(§1) Because RTI-55 (and cocaine) acts as inhibitors of SERT and DAT, we also performed the binding assay in cells transfected with human DAT.

hSERT [2] = biological target: T1, hSERT; assay: 5-HT uptake assay with preincubation (whole cells); type: cell-based; conditions: whole cell assay with preincubation (title 45 min, text 60 min), 75 nM [3H]-5-HT, 10 min
Description: 7 μl Fugene-6 was mixed with 112 μl Dulbecco's modified Eagle's medium, and incubated at room temperature for 5 minutes. 4 μg of plasmid were added and the mixture was further incubated at least 15 minutes. Cos-1 cells were trypsinized and suspended in growth media, and the plasmid/Fugene-6 mixture was added followed by dispersion into a 96-well plate.
The 96-well plate was washed with PBSCM to remove DMEM prior to the assay. 50 μl PBSCM containing increasing concentrations of allosteric ligand were added to each well, and incubated for 60 min at room temperature under moderate agitation. […] The plate was subsequently incubated for 10 min at room temperature. The assay was terminated by washing once with PBSCM. The amount of accumulated [^3H]-5-HT was determined by solubilizing cells in scintillant (MicroScint 20) with direct counting of plates in a Packard TopCounter. Data was analyzed by GraphPad software.
We tested the allosteric ligands for their ability to inhibit/activate 5-HT-uptake in the whole-cell assay after 60 minutes preincubation.

hSERT [3] = biological target: T1, hSERT; assay: Binding assay on whole cells transfected with hSERT ([3H]-citalopram displacement); conditions: for EC50: whole cell assay, 35 nM [3H]-citalopram, 60 min room temperature, table title: 45 min preincubation
Description: The pcDNA3 plasmid vector containing the hSERT gene was used for transfection (see FIG. 6).
The 96-well plate was washed with PBSCM to remove DMEM prior to the assay. […] The plate was subsequently incubated for 60 min at room temperature. The assay was terminated by washing once with PBSCM. The amount of accumulated [^3H]-citalopram was determined by solubilizing cells in scintillant (MicroScint 20) with direct counting of plates in a Packard TopCounter. Data was analyzed by GraphPad software.

hSERT [4] = biological target: T1, hSERT; assay: Binding of [3H]-citalopram to membrane preparations; conditions: 35 nM [3H]-citalopram, 60 min RT
Description: (§2) 17.5 μl Fugene-6 (Roche Molecular Biochemicals) were mixed with 280 μl Dulbecco's modified Eagle's medium, and incubated at room temperature for 5 minutes. 10 μg of plasmid were added and the mixture was further incubated at least 15 minutes. […] Prior to harvesting the dish was rinsed in PBS. Cells were harvested with a cell scraper in buffer 1 (50 mM Tris-base, 150 mM NaCl, 20 mM EDTA, pH 7.4). After centrifugation (3000 g at 4° C. for 10 mins), cells were suspended and homogenized with an IKA Ultra-Turrax from Rose Scientific Ltd (Edmonton, Alberta, Canada) for 20 s in buffer 1. Membranes were pelleted by ultracentrifugation (12 000 g at 4° C. for 15 min) and homogenization was repeated in buffer 1. Finally, after ultracentrifugation (12000 g, 4° C., 15 min) membranes were resuspended in 1 ml buffer 3 (50 mM Tris-base, 120 mM NaCl, 5 mM KCl, pH 7.4) and stored at −80° C.
A dilution series of the allosteric ligand was prepared in buffer 3 containing 70 nM [^3H]-citalopram. […] The mixture was incubated under moderate agitation at RT for 60 min. Reactions were terminated by filtration through GF/C glass-fibre filters (Unifilter, Perkin Elmer Life Sciences), preincubated with 40 μl 0.5 % polyethyleneimine, using a Pachard Bell cell harvester, and subsequently washed three times with water. Filters were soaked in 40 μl Microscint 20 scintillation liquid (Pachard Bell). Bound radioactivity was determined by direct counting of plates using a Packard Bell microplate scintillation counter. Displacing curves were obtained by plotting residual binding vs. log concentration of the displacing ligand.

hSERT [5] = biological target: T1, hSERT; assay: 5-HT uptake assay, 10 min incubation without preincubation; type: cell-based; conditions: 75 nM [3H]-5-HT, no preincubation
Description: Cells were grown for 48 h to confluency, and prior to uptake assay, plates were washed in PBSCM. All washing steps were carried out in an automatic plate washer. […] The assay was terminated by washing with PBSCM. The amount of accumulated [^3H]-5HT was determined by solubilizing cells in scintillant (MicroScint 20) with direct counting of plates in a Packard TopCounter. Data was analyzed by GraphPad software.
(§3) Dissociation of [^3H]-citalopram from the serotonin transporter has been studied using membrane preparations from SERT-expressing cells. The off-rates of the radioligand were measured in the presence/absence of a fixed concentration of allosteric ligand. […] Additionally, the allosteric impact on the radioligand in the absence of citalopram, was studied by combining 10 μM fluoxetine and 200/2000 μM allosteric ligand in the dissociation buffer. […] The cells were incubated for 10 minutes before the assay was terminated by washing in PBSCM.

hSERT [6] = biological target: T1, hSERT; assay: Dissociation assay with [3H]-citalopram and hSERT membrane preparations; type: binding; conditions: for Stabilises dissociation of [3H]-citalopram: own effect (10 uM fluoxetine) (concentration which affects dissociation): 10 uM fluoxetine in dissociation buffer; for Stabilises dissociation of [3H]-citalopram: 15 uM citalopram (concentration which affects dissociation): 15 uM citalopram in dissociation buffer
Description: as §2
Dissociation assay with [^3H]-citalopram and membrane preparations SERT-[^3H]-citalopram complex was formed by incubating hSERT membrane preparation and radioligand in buffer 3 during a 60 min incubation at 4° C. Radioligand was present at a concentration 10 times the Kd value. The time kinetic of dissociation was followed by adding 10 μL complex solution to 250 μL buffer 3 in 96-well plates and incubating subsequently for increasing time intervals at RT. Reactions were terminated by filtration through GF/C glass-fibre filters (Unifilter, Perkin Elmer Life Sciences), preincubated with 40 μl 0.5 % polyethyleneimine, using a Pachard Bell cell harvester, and subsequently washed three times with water. Filters were soaked in 40 μl Microscint 20 scintillation liquid (Pachard Bell). Bound radioactivity was determined by direct counting of plates using a Packard Bell microplate scintillation counter. Dissociation curves were obtained by plotting residual binding vs. time of dissociation.
The interaction of the allosteric ligand with the allosteric mechanism used by citalopram was studied by combining allosteric ligand and citalopram in the dissociation buffer. The interaction of the allosteric ligand with the radioligand was studied by combining the allosteric ligand and fluoxetine in the dissociation buffer.
as §3

hDAT = biological target: T2, hDAT (Homo sapiens, UniProt Q01959); assay: Binding of [125I]-RTI-55 in whole cell assay, cells transfected with human DAT; conditions: displacement of [125I]-RTI-55
T2 construct: expressed in transfected cells
Text: A binding assay as described in example 2, wherein the cocaine analogue [^125I] RTI-55 was used to test for the compounds of the present invention to act as displacers of cocain.
as §1

T2 sequence (Q01959 whole entry): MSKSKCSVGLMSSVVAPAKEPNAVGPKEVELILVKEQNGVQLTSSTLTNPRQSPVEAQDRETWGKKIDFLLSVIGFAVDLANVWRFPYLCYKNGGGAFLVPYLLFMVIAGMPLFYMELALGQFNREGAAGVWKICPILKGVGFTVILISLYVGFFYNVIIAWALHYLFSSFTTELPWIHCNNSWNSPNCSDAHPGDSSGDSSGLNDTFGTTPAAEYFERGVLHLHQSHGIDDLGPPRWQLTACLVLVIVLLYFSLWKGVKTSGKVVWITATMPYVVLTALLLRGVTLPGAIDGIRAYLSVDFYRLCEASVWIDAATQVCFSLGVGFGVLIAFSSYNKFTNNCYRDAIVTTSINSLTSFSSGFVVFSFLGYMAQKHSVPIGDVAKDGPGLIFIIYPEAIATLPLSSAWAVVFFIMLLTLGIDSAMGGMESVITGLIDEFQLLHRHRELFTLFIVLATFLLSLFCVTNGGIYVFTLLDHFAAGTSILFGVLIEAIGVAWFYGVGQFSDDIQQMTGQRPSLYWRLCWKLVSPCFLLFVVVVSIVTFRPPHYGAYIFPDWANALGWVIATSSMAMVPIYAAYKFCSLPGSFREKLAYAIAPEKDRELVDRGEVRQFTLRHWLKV
T1 sequence (P31645 whole entry): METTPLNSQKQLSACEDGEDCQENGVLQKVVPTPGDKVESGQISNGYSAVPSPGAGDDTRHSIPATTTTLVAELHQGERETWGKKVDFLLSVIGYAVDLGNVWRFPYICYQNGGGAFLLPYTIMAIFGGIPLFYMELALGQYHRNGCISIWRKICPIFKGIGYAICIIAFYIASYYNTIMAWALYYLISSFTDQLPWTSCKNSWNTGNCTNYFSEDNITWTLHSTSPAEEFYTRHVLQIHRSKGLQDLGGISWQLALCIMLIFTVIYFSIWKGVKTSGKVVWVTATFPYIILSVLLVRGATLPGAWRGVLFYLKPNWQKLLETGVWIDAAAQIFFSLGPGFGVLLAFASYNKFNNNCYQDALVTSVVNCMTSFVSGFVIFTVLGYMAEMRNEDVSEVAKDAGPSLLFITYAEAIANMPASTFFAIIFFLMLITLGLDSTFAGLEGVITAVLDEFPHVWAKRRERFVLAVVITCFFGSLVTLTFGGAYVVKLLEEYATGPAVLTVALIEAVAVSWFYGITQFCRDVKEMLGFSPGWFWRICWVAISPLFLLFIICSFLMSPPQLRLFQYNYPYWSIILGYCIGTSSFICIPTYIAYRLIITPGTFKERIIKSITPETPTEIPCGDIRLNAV

Row | SMILES | EC50 (hSERT [1]) [µM] | IC50 (hSERT [2]) [µM] | EC50 (hSERT [3]) [µM] | concentration that increases the allosteric impact on dissociation by 15 μM citalopram (FIG. 7) (hSERT [6]; 15 μM citalopram) [µM] | EC50 (hDAT) [µM] | displacement of the radioligand (FIG. 3) (hSERT [3]; increasing concentrations, 60 minutes incubation at room temperature) | Binding of [3H]-citalopram (Bmax) (hSERT [4]) | 5-HT uptake (effect) (hSERT [5]) | Stabilises dissociation of [3H]-citalopram: own effect (10 uM fluoxetine) (concentration which affects dissociation) (hSERT [6]) | Stabilises dissociation of [3H]-citalopram: 15 uM citalopram (concentration which affects dissociation) (hSERT [6]) | 5-HT uptake (effect) (hSERT [5]; listed as PefaCl)
1 | CCOS(=O)(=O)c1cccc2ccccc12 [1-NSC react. EtOH, 1-Naphthalene sulfonic acid ethyl ester] | 462 | 110 | 533 | – | – | – | Displace | Inhibition | 300 µM | 300 µM | –
2 | O=S(=O)(Cl)c1ccccc1 [BSC, benzenesulfonyl chloride] | – | – | – | – | – | – | No effect | Increase | – | 3000 µM | –
3 | O=S(=O)(Cl)Cc1ccccc1 [PMSC] | – | – | – | – | – | – | No effect | Increase | – | No effect | –
4 | NCCc1ccc(S(=O)(=O)Cl)cc1 [PefaCI, 4-(2-Aminoethyl)benzenesulfonyle cloride] | – | – | 1650 | – | – | – | No effect | Increase | 2000 µM | 2000 µM | increases 5-HT uptake
5 | Cc1ccc(S(N)(=O)=O)cc1 [TS1] | – | > 2000 | > 2000 | 2000 | – | – | No effect | Increase | 2000 µM | 200 µM | –
6 | O=P(O)(O)c1ccccc1 [TS4] | – | > 2000 | > 2000 | – | – | – | – | – | – | – | –
7 | O=S(=O)(c1ccccc1)c1ccccc1 [TS5] | – | > 2000 | > 2000 | – | – | – | – | – | – | – | –
8 | COS(=O)(=O)c1ccc(C)cc1 [TS6] | – | > 2000 | > 2000 | – | – | – | No effect | Increase | No effect | 2000 µM | –
9 | Cc1ccc(S(=O)(=O)N(C)N=O)cc1 [TS13] | – | > 2000 | > 2000 | – | – | – | displace | Increase | 200 µM | 200 µM | –
10 | [C-]#[N+]CS(=O)(=O)c1ccc(C)cc1 [TS15] | – | > 2000 | > 2000 | – | – | – | No effect | No effect | 2000 µM | 2000 µM | –
11 | Nc1c(O)cc(S(=O)(=O)O)c2ccccc12 [TS16] | 1.1 | 453 | 54 | – | 2.9 | – | – | – | – | – | –
12 | Nc1cccc2ccccc12 [TS18] | – | 458 | 1030 | – | – | – | – | – | – | – | –
13 | Clc1cccc2ccccc12 [TS20] | – | 373 | > 2000 | – | – | – | No effect | Inhibition | 200 µM | 200 µM | –
14 | O=[N+]([O-])c1cccc2ccccc12 [TS22] | – | 2.9 | > 2000 | – | – | – | No effect | Inhibition | 200 µM | 200 µM | –

Further lines, with some results ahead:

Row | EC50 (hSERT [1]) [µM] | IC50 (hSERT [2]) [µM] | EC50 (hSERT [3]) [µM] | concentration that increases the allosteric impact on dissociation by 15 μM citalopram (FIG. 7) (hSERT [6]; 15 μM citalopram) [µM] | EC50 (hDAT) [µM] | displacement of the radioligand (FIG. 3) (hSERT [3]; increasing concentrations, 60 minutes incubation at room temperature) | SMILES | Binding of [3H]-citalopram (Bmax) (hSERT [4]) | 5-HT uptake (effect) (hSERT [5]) | Stabilises dissociation of [3H]-citalopram: own effect (10 uM fluoxetine) (concentration which affects dissociation) (hSERT [6]) | Stabilises dissociation of [3H]-citalopram: 15 uM citalopram (concentration which affects dissociation) (hSERT [6]) | 5-HT uptake (effect) (hSERT [5]; listed as PefaCl)
15 | > 2000 | 735 | 1420 | – | > 2000 | – | OB(O)c1ccccc1 [TS3] | – | – | – | – | –
16 | – | > 2000 | 1390 | – | – | – | CN(C)c1cccc2c(S(=O)(=O)Cl)cccc12 [TS7] | – | – | – | – | –
17 | > 2000 | > 2000 | 990 | – | > 2000 | – | CC(=O)c1ccccc1 [TS9] | – | – | – | – | –
18 | – | 1150 | > 2000 | – | – | – | NC(=O)c1ccccc1 [TS10] | – | – | – | – | –
19 | – | > 2000 | – | – | – | – | Nc1cccc2cccc(S(=O)(=O)O)c12 [TS11] | – | – | – | – | –
20 | 269 | – | 523 | – | 212 | – | Nc1ccc(S(=O)(=O)O)c2ccccc12 [TS12] | – | – | – | – | –
21 | – | > 2000 | 1050 | – | – | – | C=CS(=O)(=O)c1ccccc1 [TS17] | No effect | – | 2000 µM | 2000 µM | –
22 | – | 422 | 950 | – | – | displaces the radioligand | Nc1cccc2c(N)cccc12 [TS19] | – | – | – | – | –
23 | – | 60 | > 2000 | – | – | – | N#Cc1cccc2ccccc12 [TS21] | – | – | – | – | –
24 | – | 15.9 | 1020 | – | – | – | Cc1ccc2ccccc2c1[N+](=O)[O-] [TS23] | – | – | – | – | –
25 | – | 25.9 | > 2000 | – | – | – | O=[N+]([O-])c1ccc(F)c2ccccc12 [TS25] | – | – | – | – | –
26 | 220 | 275 | 185 | – | 138 | – | O=C(O)c1ccc2ccccc2c1O [TS27] | – | – | – | – | –
27 | 510 | > 2000 | 276 | – | 288 | – | O=C(O)c1c(O)ccc2ccccc12 [TS28] | – | – | – | – | –

Source: patent publication US20100048713A1, “COMPOUNDS ACTING ON THE SEROTONIN TRANSPORTER” (Aarhus Universitet, priority 2006, published 2010)
